Literature values in patent US8962595B2, “Compositions of small molecule therapeutics” (Nexmed Holdings, Inc., priority 2010, dated 2015).

Settings: water

NS(=O)(=O)c1cc2c(cc1Cl)N=CNS2(=O)=O [Chlorothiazide, chlorothiazide]
Sol. H2O (reported solubility from the literature): 3000 µg/mL
